# Tested on: 885512-296-R-J2-PDC complex spheroid growth, % test/control
# Test: Anticancer human tumor 885512-296-R-J2-PDC patient-derived breast carcinoma cell line growth inhibition [AhR]
# Details: for IC50: curve of first compound; for viability, T/C: stronger effect = lower value
# In short: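 Complex tumor spheroids co-cultured with HUVEC and human MSC stroma; AhR antagonists tested in combination with standard-of-care and investigational agents. Top concentration at or near clinical Cmax (else 10 microM), half-log dilutions; growth expressed as percent test/control.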
# [1] = second compound 0.1 µM, first compound 0.0316 µM
# [2] = second compound 0.1 µM, first compound 0.1 µM
# [3] = second compound 0.1 µM, first compound 0.316 µM
# [4] = second compound 0.1 µM, first compound 1 µM
# [5] = second compound 0.316 µM, first compound 0.0316 µM
# [6] = second compound 0.316 µM, first compound 0.1 µM
# [7] = second compound 0.316 µM, first compound 0.316 µM
# [8] = second compound 0.316 µM, first compound 1 µM
# [9] = second compound 1 µM, first compound 0.0316 µM
# [10] = second compound 1 µM, first compound 0.1 µM
# [11] = second compound 1 µM, first compound 0.316 µM
# [12] = second compound 1 µM, first compound 1 µM
# [13] = second compound 3.16 µM, first compound 0.0316 µM
# [14] = second compound 3.16 µM, first compound 0.1 µM
# [15] = second compound 3.16 µM, first compound 0.316 µM
# [16] = second compound 3.16 µM, first compound 1 µM
# [17] = second compound 10 µM, first compound 0.0316 µM
# [18] = second compound 10 µM, first compound 0.1 µM
# [19] = second compound 10 µM, first compound 0.316 µM
# [20] = second compound 10 µM, first compound 1 µM
# [21] = second compound 0.1 µM, first compound 3.16 µM
# [22] = second compound 0.1 µM, first compound 10 µM
# [23] = second compound 0.316 µM, first compound 3.16 µM
# [24] = second compound 0.316 µM, first compound 10 µM
# [25] = second compound 1 µM, first compound 3.16 µM
# [26] = second compound 1 µM, first compound 10 µM
# [27] = second compound 3.16 µM, first compound 3.16 µM
# [28] = second compound 3.16 µM, first compound 10 µM
# [29] = second compound 10 µM, first compound 3.16 µM
# [30] = second compound 10 µM, first compound 10 µM
# [31] = second compound 0.1 µM, first compound 0.00949 µM
# [32] = second compound 0.1 µM, first compound 0.03 µM
# [33] = second compound 0.1 µM, first compound 0.0949 µM
# [34] = second compound 0.1 µM, first compound 0.3 µM
# [35] = second compound 0.316 µM, first compound 0.00949 µM
# [36] = second compound 0.316 µM, first compound 0.03 µM
# [37] = second compound 0.316 µM, first compound 0.0949 µM
# [38] = second compound 0.316 µM, first compound 0.3 µM
# [39] = second compound 1 µM, first compound 0.00949 µM
# [40] = second compound 1 µM, first compound 0.03 µM
# [41] = second compound 1 µM, first compound 0.0949 µM
# [42] = second compound 1 µM, first compound 0.3 µM
# [43] = second compound 3.16 µM, first compound 0.00949 µM
# [44] = second compound 3.16 µM, first compound 0.03 µM
# [45] = second compound 3.16 µM, first compound 0.0949 µM
# [46] = second compound 3.16 µM, first compound 0.3 µM
# [47] = second compound 10 µM, first compound 0.00949 µM
# [48] = second compound 10 µM, first compound 0.03 µM
# [49] = second compound 10 µM, first compound 0.0949 µM
# [50] = second compound 10 µM, first compound 0.3 µM
# 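Note: spheroids exposed to compounds for seven days.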
smiles,measurement,setting,value
CC1COCCN1c1cc(-c2ccnn2C)c2ccnc(-c3ccn[nH]3)c2n1 (stereo not given) + Cc1cncc(-c2nc(NCCc3c[nH]c4ccccc34)c3ncn(C(C)C)c3n2)c1,IC50,second compound 0.1 µM,34.4 nM
same,IC50,second compound 0.316 µM,33.4 nM
same,IC50,second compound 1 µM,22.1 nM
same,IC50,second compound 3.16 µM,3.22 nM
same,IC50,second compound 10 µM,< 3.16 nM
same,"viability, T/C","second compound 0.1 µM, first compound 0.00316 µM",99.4%
same,"viability, T/C","second compound 0.1 µM, first compound 0.01 µM",85.3%
same,"viability, T/C",[1],55.2%
same,"viability, T/C",[2],9.6%
same,"viability, T/C",[3],3.2%
same,"viability, T/C",[4],2.72%
same,"viability, T/C","second compound 0.316 µM, first compound 0.00316 µM",83.1%
same,"viability, T/C","second compound 0.316 µM, first compound 0.01 µM",95.9%
same,"viability, T/C",[5],51.9%
same,"viability, T/C",[6],9.85%
same,"viability, T/C",[7],3.26%
same,"viability, T/C",[8],2.57%
same,"viability, T/C","second compound 1 µM, first compound 0.00316 µM",74.4%
same,"viability, T/C","second compound 1 µM, first compound 0.01 µM",71.3%
same,"viability, T/C",[9],40.3%
same,"viability, T/C",[10],7.24%
same,"viability, T/C",[11],2.89%
same,"viability, T/C",[12],2.37%
same,"viability, T/C","second compound 3.16 µM, first compound 0.00316 µM",48.9%
same,"viability, T/C","second compound 3.16 µM, first compound 0.01 µM",50.1%
same,"viability, T/C",[13],33.7%
same,"viability, T/C",[14],8.94%
same,"viability, T/C",[15],2.55%
same,"viability, T/C",[16],2.78%
same,"viability, T/C","second compound 10 µM, first compound 0.00316 µM",13.3%
same,"viability, T/C","second compound 10 µM, first compound 0.01 µM",15.6%
same,"viability, T/C",[17],9.95%
same,"viability, T/C",[18],6.27%
same,"viability, T/C",[19],3.04%
same,"viability, T/C",[20],2.87%
CC1COCCN1c1cc(C2(S(C)(=N)=O)CC2)nc(-c2ccnc3[nH]ccc23)n1 (stereo not given) + Cc1cncc(-c2nc(NCCc3c[nH]c4ccccc34)c3ncn(C(C)C)c3n2)c1,IC50,second compound 0.1 µM,2280 nM
same,IC50,second compound 0.316 µM,1950 nM
same,IC50,second compound 1 µM,1510 nM
same,IC50,second compound 3.16 µM,282 nM
same,IC50,second compound 10 µM,< 31.6 nM
same,"viability, T/C",[1],99.8%
same,"viability, T/C",[2],102%
same,"viability, T/C",[3],103%
same,"viability, T/C",[4],95%
same,"viability, T/C",[21],32.3%
same,"viability, T/C",[22],4.89%
same,"viability, T/C",[5],99.2%
same,"viability, T/C",[6],99.5%
same,"viability, T/C",[7],97.3%
same,"viability, T/C",[8],81.9%
same,"viability, T/C",[23],26.9%
same,"viability, T/C",[24],6.7%
same,"viability, T/C",[9],86.4%
same,"viability, T/C",[10],86.1%
same,"viability, T/C",[11],82.9%
same,"viability, T/C",[12],64.7%
same,"viability, T/C",[25],23.6%
same,"viability, T/C",[26],4.77%
same,"viability, T/C",[13],65%
same,"viability, T/C",[14],55.3%
same,"viability, T/C",[15],47.7%
same,"viability, T/C",[16],42.4%
same,"viability, T/C",[27],20.4%
same,"viability, T/C",[28],6.04%
same,"viability, T/C",[17],22.3%
same,"viability, T/C",[18],22.7%
same,"viability, T/C",[19],19.9%
same,"viability, T/C",[20],18.2%
same,"viability, T/C",[29],12.5%
same,"viability, T/C",[30],5%
COc1ccc([C@@H](O)c2cc(-c3ncnc4cc(N5CCOCC5)ccc34)c(F)cc2Cl)nn1 + Cc1cncc(-c2nc(NCCc3c[nH]c4ccccc34)c3ncn(C(C)C)c3n2)c1,IC50,second compound 0.1 µM,> 10000 nM
same,IC50,second compound 0.316 µM,8020 nM
same,IC50,second compound 1 µM,6100 nM
same,IC50,second compound 3.16 µM,933 nM
same,IC50,second compound 10 µM,< 31.6 nM
same,"viability, T/C",[1],101%
same,"viability, T/C",[2],93.2%
same,"viability, T/C",[3],87.4%
same,"viability, T/C",[4],87.3%
same,"viability, T/C",[21],63.1%
same,"viability, T/C",[22],51.7%
same,"viability, T/C",[5],104%
same,"viability, T/C",[6],89.7%
same,"viability, T/C",[7],81.9%
same,"viability, T/C",[8],86.5%
same,"viability, T/C",[23],65.9%
same,"viability, T/C",[24],45.1%
same,"viability, T/C",[9],90.9%
same,"viability, T/C",[10],78.4%
same,"viability, T/C",[11],86.8%
same,"viability, T/C",[12],77.7%
same,"viability, T/C",[25],63.2%
same,"viability, T/C",[26],39.5%
same,"viability, T/C",[13],55.2%
same,"viability, T/C",[14],55.5%
same,"viability, T/C",[15],48.2%
same,"viability, T/C",[16],53.3%
same,"viability, T/C",[27],42.6%
same,"viability, T/C",[28],32.4%
same,"viability, T/C",[17],18.1%
same,"viability, T/C",[18],15.5%
same,"viability, T/C",[19],16.1%
same,"viability, T/C",[20],13.2%
same,"viability, T/C",[29],11.3%
same,"viability, T/C",[30],9.01%
Nc1ncn(C2CC(O)C(CO)S2)c(=O)n1 (stereo not given) + Cc1cncc(-c2nc(NCCc3c[nH]c4ccccc34)c3ncn(C(C)C)c3n2)c1,IC50,second compound 0.1 µM,96.6 nM
same,IC50,second compound 0.316 µM,93.9 nM
same,IC50,second compound 1 µM,44.8 nM
same,IC50,second compound 3.16 µM,3.46 nM
same,IC50,second compound 10 µM,< 0.949 nM
same,"viability, T/C","second compound 0.1 µM, first compound 0.000949 µM",99.5%
same,"viability, T/C","second compound 0.1 µM, first compound 0.003 µM",110%
same,"viability, T/C",[31],107%
same,"viability, T/C",[32],79%
same,"viability, T/C",[33],53%
same,"viability, T/C",[34],40.9%
same,"viability, T/C","second compound 0.316 µM, first compound 0.000949 µM",98%
same,"viability, T/C","second compound 0.316 µM, first compound 0.003 µM",94.1%
same,"viability, T/C",[35],99.1%
same,"viability, T/C",[36],75.9%
same,"viability, T/C",[37],51.3%
same,"viability, T/C",[38],38.8%
same,"viability, T/C","second compound 1 µM, first compound 0.000949 µM",67.6%
same,"viability, T/C","second compound 1 µM, first compound 0.003 µM",67.8%
same,"viability, T/C",[39],70.7%
same,"viability, T/C",[40],55.7%
same,"viability, T/C",[41],38.8%
same,"viability, T/C",[42],33.1%
same,"viability, T/C","second compound 3.16 µM, first compound 0.000949 µM",47.4%
same,"viability, T/C","second compound 3.16 µM, first compound 0.003 µM",54.8%
same,"viability, T/C",[43],47.8%
same,"viability, T/C",[44],42.5%
same,"viability, T/C",[45],36%
same,"viability, T/C",[46],27.5%
same,"viability, T/C","second compound 10 µM, first compound 0.000949 µM",21%
same,"viability, T/C","second compound 10 µM, first compound 0.003 µM",23.5%
same,"viability, T/C",[47],18.9%
same,"viability, T/C",[48],15%
same,"viability, T/C",[49],17.4%
same,"viability, T/C",[50],13.9%
O=C(C=Cn1cnc(-c2cc(C(F)(F)F)cc(C(F)(F)F)c2)n1)NNc1cnccn1 + Cc1cncc(-c2nc(NCCc3c[nH]c4ccccc34)c3ncn(C(C)C)c3n2)c1,IC50,second compound 0.1 µM,60.6 nM
same,IC50,second compound 0.316 µM,69.2 nM
same,IC50,second compound 1 µM,65.8 nM
same,IC50,second compound 3.16 µM,42.5 nM
same,IC50,second compound 10 µM,< 9.49 nM
same,"viability, T/C",[31],93.3%
same,"viability, T/C",[32],99.9%
same,"viability, T/C",[33],20.3%
same,"viability, T/C",[34],4.2%
same,"viability, T/C","second compound 0.1 µM, first compound 0.949 µM",2.2%
same,"viability, T/C","second compound 0.1 µM, first compound 3 µM",1.61%
same,"viability, T/C",[35],97.4%
same,"viability, T/C",[36],93%
same,"viability, T/C",[37],33.8%
same,"viability, T/C",[38],5.36%
same,"viability, T/C","second compound 0.316 µM, first compound 0.949 µM",2.35%
same,"viability, T/C","second compound 0.316 µM, first compound 3 µM",1.45%
same,"viability, T/C",[39],98.2%
same,"viability, T/C",[40],89.4%
same,"viability, T/C",[41],31.6%
same,"viability, T/C",[42],4.92%
same,"viability, T/C","second compound 1 µM, first compound 0.949 µM",2.78%
same,"viability, T/C","second compound 1 µM, first compound 3 µM",1.53%
same,"viability, T/C",[43],64.6%
same,"viability, T/C",[44],66.2%
same,"viability, T/C",[45],14.8%
same,"viability, T/C",[46],5.25%
same,"viability, T/C","second compound 3.16 µM, first compound 0.949 µM",2.77%
same,"viability, T/C","second compound 3.16 µM, first compound 3 µM",1.58%
same,"viability, T/C",[47],19.2%
same,"viability, T/C",[48],16.8%
same,"viability, T/C",[49],8.05%
same,"viability, T/C",[50],4.48%
same,"viability, T/C","second compound 10 µM, first compound 0.949 µM",3.45%
same,"viability, T/C","second compound 10 µM, first compound 3 µM",2.01%
